Among the test systems are NCI-H460 lung; HCT-116 colon; SN12C renal; CCRF-CEM leukemia; 786-0 renal; HOP-62 NSCLC; OVCAR-5 ovarian; MALME-3M melanoma; T-47D breast; SW-620 colon.
Common to all, as to assay: growth of human tumour cells (NCI), 48 h

Where “and” joins values, the source holds several entries; their conditions need not be identical. Equal values may be shown once.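 Exposure lasted 48 hours, with cells grown in 96-well plates and compounds tested at five concentrations. Abbreviation: GI50, concentration required for 50% inhibition of growth. At the TGI there is no net growth.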

`COc1ccc2c(c1)nnc1c3cccnc3[nH]c21`: the GI50 in the assay on NCI-H460 lung is 1.93 µM and 1.28 µM; in the assay with HCT-116 colon, 0.209 µM and 0.146 µM; in the assay on SN12C renal it was 1.63 µM and 1.68 µM; in the assay with CCRF-CEM leukemia it was 0.0372 µM; in the assay on 786-0 renal it was 0.509 µM and 2.23 µM; with HOP-62 NSCLC, 5.47 µM and 26 µM. Besides, the GI50 in the assay with OVCAR-5 ovarian is 5.72 µM and 35.4 µM; in the assay on MALME-3M melanoma, 1.06 µM and 0.926 µM; in the assay on T-47D breast, 0.492 µM and 0.224 µM; with SW-620 colon it was 0.378 µM and 0.978 µM. Besides, the TGI in the assay on NCI-H460 lung is 9.03 µM and 3.79 µM; in the assay with SN12C renal it was 7.77 µM and 10.7 µM; in the assay on CCRF-CEM leukemia it was over 100 µM; in the assay with HOP-62 NSCLC it was 16.1 µM and > 100 µM; in the assay on OVCAR-5 ovarian it was 20.2 µM and > 100 µM; in the assay with MALME-3M melanoma, 4.63 µM and 4.18 µM. In addition, in the assay on T-47D breast, the TGI was 2.61 µM and 4.21 µM.
Turning to `COc1cnccc1Nc1nc(-c2nn(Cc3c(F)cc(OCCO)cc3F)c3ccccc23)ncc1OC`, the GI50 was 2.06 µM in the assay on NCI-H460 lung; 3.64 µM in the assay on HCT-116 colon; 1.53 µM in the assay with SN12C renal; 0.946 µM with CCRF-CEM leukemia; 1.76 µM in the assay with 786-0 renal; 2.46 µM in the assay with HOP-62 NSCLC. Also, the GI50 with OVCAR-5 ovarian was 5.13 µM; in the assay on MALME-3M melanoma, 2.16 µM; with T-47D breast it was 16.5 µM; in the assay on SW-620 colon it was 1.99 µM. Further, the TGI in the assay on NCI-H460 lung is 10.6 µM; with HCT-116 colon, 20.2 µM; in the assay on SN12C renal it was 11.1 µM; in the assay with CCRF-CEM leukemia, over 100 µM; in the assay on 786-0 renal, 5.44 µM; with HOP-62 NSCLC, 8.32 µM. Further, the TGI is 24.5 µM with OVCAR-5 ovarian, 5.88 µM in the assay on MALME-3M melanoma, 72.7 µM in the assay on T-47D breast and 7.4 µM in the assay on SW-620 colon.
For the molecule `COc1ccc(-c2[nH]ncc2Nc2cc(OC)c(OC)c(OC)c2)cc1`, the GI50 was 2.68 µM with NCI-H460 lung; 1.04 µM in the assay with HCT-116 colon; 7.18 µM in the assay on SN12C renal; 1.5 µM with CCRF-CEM leukemia; 6.2 µM in the assay on 786-0 renal; 3.32 µM in the assay with HOP-62 NSCLC. The GI50 with OVCAR-5 ovarian is 5.26 µM; in the assay with MALME-3M melanoma, 2.04 µM; in the assay with T-47D breast, 4.07 µM; with SW-620 colon it was 0.558 µM. The TGI in the assay with NCI-H460 lung is over 63.6 µM; in the assay with HCT-116 colon, over 43.2 µM; with SN12C renal it was over 100 µM; in the assay on CCRF-CEM leukemia, 19.4 µM; in the assay on 786-0 renal it was over 65.4 µM; with HOP-62 NSCLC, over 95.3 µM. Also, the TGI in the assay on OVCAR-5 ovarian was over 100 µM; with MALME-3M melanoma it was over 26.1 µM; in the assay with T-47D breast it was over 100 µM; in the assay with SW-620 colon it was over 100 µM.
Take `CSc1nc(SC)c2c(C)cn(COCCOC(=O)c3ccccc3)c2n1`: the TGI in the assay on NCI-H460 lung, with HCT-116 colon, with SN12C renal, in the assay with CCRF-CEM leukemia, in the assay on 786-0 renal and in the assay with HOP-62 NSCLC was over 100 µM in each case. The TGI was over 100 µM in the assay with OVCAR-5 ovarian, over 100 µM with MALME-3M melanoma, 94.5 µM in the assay with T-47D breast and over 100 µM in the assay with SW-620 colon.
As to `N#CC1=C(N)OC2=C(CCOc3c2ccc2ccccc32)C1c1ccc(Br)cc1` (stereo not given), the GI50 in the assay on NCI-H460 lung is 28.4 µM; with HCT-116 colon, 15.1 µM; with SN12C renal, 21.6 µM; with CCRF-CEM leukemia it was 16.8 µM; in the assay with 786-0 renal, 44.9 µM; with HOP-62 NSCLC it was 56.6 µM. In addition, the GI50 is 96.3 µM with OVCAR-5 ovarian, 15.3 µM with MALME-3M melanoma, over 100 µM in the assay on T-47D breast and over 100 µM with SW-620 colon. Further, the TGI in the assay with NCI-H460 lung is over 100 µM; in the assay on HCT-116 colon, 47.7 µM; in the assay on SN12C renal it was 47 µM; in the assay on CCRF-CEM leukemia, 54.2 µM; in the assay with 786-0 renal it was over 100 µM; with HOP-62 NSCLC, over 100 µM. In addition, the TGI is over 100 µM in the assay with OVCAR-5 ovarian, 57.7 µM in the assay on MALME-3M melanoma, over 100 µM with T-47D breast and over 100 µM in the assay on SW-620 colon.
Consider `C(=N\Nc1ccc2ccccc2n1)/c1ccccn1`, for which the GI50 is 0.366 µM in the assay with NCI-H460 lung; 0.368 µM with HCT-116 colon; 0.483 µM with SN12C renal; 0.371 µM with CCRF-CEM leukemia; 0.317 µM in the assay on 786-0 renal; 0.431 µM in the assay with HOP-62 NSCLC. The GI50 was 0.596 µM in the assay with OVCAR-5 ovarian, 1.35 µM in the assay on MALME-3M melanoma, 0.574 µM in the assay with T-47D breast and 0.644 µM with SW-620 colon. The TGI in the assay with HCT-116 colon is 13.9 µM; in the assay with SN12C renal, over 100 µM; in the assay on CCRF-CEM leukemia it was over 100 µM; in the assay with HOP-62 NSCLC, 6.98 µM; in the assay with OVCAR-5 ovarian, over 100 µM; in the assay with MALME-3M melanoma, 8.34 µM. Further, the TGI is 38.5 µM in the assay on T-47D breast and over 43.3 µM in the assay with SW-620 colon.

The record behind these values is PubChem BioAssay (NCI).
